From ChEMBL document CHEMBL4609983, “Pan-specific and partially selective dye-labeled peptidic inhibitors of the polycomb paralog proteins” (Bioorg Med Chem, 2020)
Activity calls are given as the source filed them. Non-standard residues stand in square brackets, D forms with d. Residues, ends and D or L forms follow the SMILES beside them. *: point of attachment. Biotin = O=C1N[C@H]2[C@H](CS[C@H]2CCCCC(=O)*)N1; Lys(Me3) = C[N+](C)(C)CCCC[C@H](N)C(=O)O; Benzoyl(4-Br) = O=C(c1ccc(Br)cc1)*

Experiments:
[1] = target: T1, Chromodomain Y-like protein 2 (Homo sapiens) (UniProt Q8N8U2); assay: Binding affinity to recombinant human CDYL2 by microarray based assay
T1 sequence (whole entry): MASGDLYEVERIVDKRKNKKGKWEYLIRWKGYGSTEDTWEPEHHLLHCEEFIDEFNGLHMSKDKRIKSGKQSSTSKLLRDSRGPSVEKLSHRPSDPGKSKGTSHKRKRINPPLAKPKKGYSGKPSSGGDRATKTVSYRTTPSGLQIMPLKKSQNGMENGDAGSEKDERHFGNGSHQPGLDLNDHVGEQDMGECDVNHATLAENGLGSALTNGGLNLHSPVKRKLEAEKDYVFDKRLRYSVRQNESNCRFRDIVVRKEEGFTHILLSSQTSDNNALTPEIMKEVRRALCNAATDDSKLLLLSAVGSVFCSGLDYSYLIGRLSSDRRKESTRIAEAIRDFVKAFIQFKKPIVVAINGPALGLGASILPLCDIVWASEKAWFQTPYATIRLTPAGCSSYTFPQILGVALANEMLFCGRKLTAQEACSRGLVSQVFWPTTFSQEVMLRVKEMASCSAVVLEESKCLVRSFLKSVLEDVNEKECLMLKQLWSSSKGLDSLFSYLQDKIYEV

[2] = target: T2, Chromodomain Y-like protein (Homo sapiens) (UniProt Q9Y232); assay: Binding affinity to recombinant human CDYL1B by microarray based assay
T2 sequence (whole entry): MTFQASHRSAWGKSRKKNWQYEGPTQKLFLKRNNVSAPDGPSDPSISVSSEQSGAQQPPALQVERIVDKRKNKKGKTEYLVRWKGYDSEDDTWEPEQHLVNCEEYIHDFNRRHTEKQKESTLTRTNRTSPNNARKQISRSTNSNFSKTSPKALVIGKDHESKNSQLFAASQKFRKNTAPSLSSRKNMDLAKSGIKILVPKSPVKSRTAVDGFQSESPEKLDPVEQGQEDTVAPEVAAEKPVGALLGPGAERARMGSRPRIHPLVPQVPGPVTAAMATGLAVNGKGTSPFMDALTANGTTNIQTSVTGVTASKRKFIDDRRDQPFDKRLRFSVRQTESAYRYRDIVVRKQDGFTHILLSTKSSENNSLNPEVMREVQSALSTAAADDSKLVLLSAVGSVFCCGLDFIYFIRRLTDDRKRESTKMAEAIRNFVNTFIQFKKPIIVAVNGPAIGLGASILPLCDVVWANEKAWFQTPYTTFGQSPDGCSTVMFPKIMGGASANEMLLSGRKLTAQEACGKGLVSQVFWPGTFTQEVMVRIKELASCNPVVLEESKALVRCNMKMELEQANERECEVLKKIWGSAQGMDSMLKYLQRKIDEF

[3] = target: Mortality factor 4-like protein 1 (Homo sapiens) (UniProt Q9UBU8); assay: Binding affinity to recombinant human MORF4L1 by microarray based assay
[4] = target: T3, Chromobox protein homolog 2 (Homo sapiens) (UniProt Q14781); assay: Binding affinity to recombinant human CBX2 by microarray based assay
T3 sequence (whole entry): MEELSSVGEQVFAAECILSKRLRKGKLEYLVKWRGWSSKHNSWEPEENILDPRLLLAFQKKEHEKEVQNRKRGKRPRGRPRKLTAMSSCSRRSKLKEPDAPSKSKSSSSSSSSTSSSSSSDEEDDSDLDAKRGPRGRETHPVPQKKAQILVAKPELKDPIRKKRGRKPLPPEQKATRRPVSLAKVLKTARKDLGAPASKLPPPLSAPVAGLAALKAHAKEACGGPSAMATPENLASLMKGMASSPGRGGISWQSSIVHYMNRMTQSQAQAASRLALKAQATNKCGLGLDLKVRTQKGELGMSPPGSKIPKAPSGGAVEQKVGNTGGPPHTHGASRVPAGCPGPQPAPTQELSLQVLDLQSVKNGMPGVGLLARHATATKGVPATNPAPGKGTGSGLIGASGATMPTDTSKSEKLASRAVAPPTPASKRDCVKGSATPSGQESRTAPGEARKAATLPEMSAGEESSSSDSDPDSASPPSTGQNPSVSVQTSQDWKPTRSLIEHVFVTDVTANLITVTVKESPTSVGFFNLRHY

[5] = target: T4, E3 SUMO-protein ligase CBX4 (Homo sapiens) (UniProt O00257); assay: Binding affinity to recombinant human CBX4 by microarray based assay
T4 sequence (whole entry): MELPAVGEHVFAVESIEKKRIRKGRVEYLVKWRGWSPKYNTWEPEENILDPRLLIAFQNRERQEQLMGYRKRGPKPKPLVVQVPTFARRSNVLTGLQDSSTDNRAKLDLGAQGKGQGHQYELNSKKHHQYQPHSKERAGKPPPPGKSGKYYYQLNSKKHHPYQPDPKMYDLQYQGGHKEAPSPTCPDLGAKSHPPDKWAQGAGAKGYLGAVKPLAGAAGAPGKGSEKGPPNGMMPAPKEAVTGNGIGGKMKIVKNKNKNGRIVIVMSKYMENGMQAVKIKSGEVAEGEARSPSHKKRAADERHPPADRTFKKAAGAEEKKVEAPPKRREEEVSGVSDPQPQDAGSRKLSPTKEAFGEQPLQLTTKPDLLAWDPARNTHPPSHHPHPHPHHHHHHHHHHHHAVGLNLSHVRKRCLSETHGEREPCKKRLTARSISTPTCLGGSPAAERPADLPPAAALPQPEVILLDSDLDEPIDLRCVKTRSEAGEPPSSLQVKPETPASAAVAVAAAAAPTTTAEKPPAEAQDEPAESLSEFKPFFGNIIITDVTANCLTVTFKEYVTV

[6] = target: T5, Chromobox protein homolog 7 (Homo sapiens) (UniProt O95931); assay: Binding affinity to recombinant human CBX7 by microarray based assay
T5 sequence (whole entry): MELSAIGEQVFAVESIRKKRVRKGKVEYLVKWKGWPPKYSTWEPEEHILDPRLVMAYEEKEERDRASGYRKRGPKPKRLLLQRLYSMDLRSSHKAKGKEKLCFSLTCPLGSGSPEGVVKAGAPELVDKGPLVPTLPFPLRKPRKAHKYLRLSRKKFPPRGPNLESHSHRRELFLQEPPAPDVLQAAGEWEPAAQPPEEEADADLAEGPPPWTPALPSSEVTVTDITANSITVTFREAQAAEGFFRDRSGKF

[7] = target: T6, Chromobox protein homolog 8 (Homo sapiens) (UniProt Q9HC52); assay: Binding affinity to recombinant human CBX8 by microarray based assay
T6 sequence (whole entry): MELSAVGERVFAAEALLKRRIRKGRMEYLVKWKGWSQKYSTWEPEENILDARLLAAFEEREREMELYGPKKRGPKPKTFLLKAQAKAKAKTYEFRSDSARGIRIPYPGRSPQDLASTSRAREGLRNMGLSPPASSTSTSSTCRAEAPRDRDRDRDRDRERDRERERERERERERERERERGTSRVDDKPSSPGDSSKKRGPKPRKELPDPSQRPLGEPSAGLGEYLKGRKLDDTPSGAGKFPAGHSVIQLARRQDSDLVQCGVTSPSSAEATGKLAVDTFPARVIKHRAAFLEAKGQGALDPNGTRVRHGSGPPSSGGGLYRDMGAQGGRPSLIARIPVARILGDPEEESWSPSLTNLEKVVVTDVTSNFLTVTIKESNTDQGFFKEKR

Measured: Activity

Mortality factor 4-like protein 1 (Homo sapiens), sequence (Q9UBU8 whole entry): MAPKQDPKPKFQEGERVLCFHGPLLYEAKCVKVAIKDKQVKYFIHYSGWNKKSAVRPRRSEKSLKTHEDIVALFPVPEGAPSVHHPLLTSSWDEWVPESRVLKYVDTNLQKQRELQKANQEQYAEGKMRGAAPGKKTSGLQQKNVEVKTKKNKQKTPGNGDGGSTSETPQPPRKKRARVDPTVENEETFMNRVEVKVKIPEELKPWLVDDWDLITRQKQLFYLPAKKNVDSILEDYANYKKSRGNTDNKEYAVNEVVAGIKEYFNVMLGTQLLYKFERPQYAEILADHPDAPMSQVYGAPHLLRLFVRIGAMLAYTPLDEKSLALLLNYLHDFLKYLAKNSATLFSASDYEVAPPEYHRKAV

CC(C)C[C@H](NC(=O)[C@H](CO)NC(=O)[C@H](CCCC[N+](C)(C)C)NC(=O)[C@H](Cc1ccc(O)cc1)NC(=O)[C@H](C)NC(=O)[C@H](Cc1ccccc1)NC(=O)c1ccc(Br)cc1)C(=O)N[C@@H](CCCCNC(=O)CCCC[C@@H]1SC[C@@H]2NC(=O)N[C@@H]21)C(N)=O ({Benzoyl(4-Br)}-FAY[Lys(Me3)]SLK(Biotin)-NH2)
active: all assays above
